Data taken from publication PMC10447463, “Data-mining unveils structure–property–activity correlation of viral infectivity enhancing self-assembling peptides” (Nature Communications, 2023).
Several values for one entry are separate records, joined by “and”; a condition that tells them apart may be missing. Identical values can stand only once. Like-named read-outs stand apart in the source and are kept apart here.

Columns and labels:
[1] = β-sheet content by ATR-FT-IR; assay type: physicochemical; conditions: for ß-sheet / %: ATR-FT-IR of lyophilised 1 mg/mL PNF solution, peak integral ratio 1625-1635 cm-1, measured once; for b -sheet / %: Fig. S7 panel A, β-sheet content by ATR-FT-IR
In short: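 First, PNF was ultrafiltered (3 kDa MWCO, 16200 x g, 45 min, 4 °C). Next, filtrate and unfiltered sample were lyophilized and taken up in DMSO. Then fluorescamine was added for 20 min at RT before reading ex 365/em 470 nm. β-sheet: ATR FT-IR of lyophilized 1 mg/mL PNF.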

[2] = tested on: HIV-1 infection of TZM-bl cells; assay: HIV-1 infectivity enhancement assay, β-galactosidase luminescence; assay type: cell-based; conditions: for Rel-EFC: infection relative to EF-C (QCKIKQIINMWQ = 1); for Log10 Infection Rel EFC: log10 of infection relative to EF-C; for Log Infectivity: Log10 infection relative to EF-C, TZM-bl cells, asymmetric std dev errors; for Log10 Infection Rel EF-C: HIV-1 infection of TZM-bl cells; for Abs. Inf. / RLU s-1: absolute infection rate, peptide 1.3 µM on cells, virus preincubated 10 min with fibrils, read 3 days post infection, mean of triplicate; for Abs. Inf.: absolute infection signal, HIV-1 on TZM-bl cells, β-galactosidase luminescence; for Log10 Inf. rel. to EF-C: log10 of HIV-1 infection of TZM-bl cells relative to EF-C (EF-C = 0); for Log10 of Rel to EFC (Feb2021): Log10 of infection relative to EF-C
[3] = Zeta-potential measurement; assay type: physicochemical; conditions: for Zeta pot. / mV: 1 mg/mL in PBS pH 7.4 from 10 mg/mL DMSO stock, 1 d RT, 60 µL diluted in 600 µL 1 mM KCl, Zetasizer Nano ZS, Smoluchowski, mean of triplicate
In short: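 Dissolve peptide from DMSO (10 mg/mL stock) into PBS pH 7.4 to 1 mg/mL. Incubate 1 d, RT. Dilute in 1 mM KCl just before reading. Derive zeta potential from mobility (Smoluchowski).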

[4] = Turbidity, derived count rate of scattered light; assay type: physicochemical; conditions: for Count Rate: derived count rate of scattered light (turbidity); for Log10 Count Rate: turbidity, derived count rate of scattered light, data of Figure 2D
[5] = Turbidity, derived count rate of scattered light; assay type: physicochemical; conditions: for Count Rate / kcps: derived count rate of scattered light at 633 nm, 173°, from zeta-potential measurement, 0.1 mg/mL in 1 mM KCl after 1 d at 1 mg/mL in PBS, turbidity / microscopic aggregation, mean of triplicate
In short: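 One-day room-temperature aggregation at 1 mg/mL in PBS (pH 7.4) preceded measurement; samples then went into 1 mM KCl. Triplicates per sample, two independent experiments averaged.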

[6] = Fig. S7 panel A (plotted against β-sheet content)
[7] = Fig. S7 panel B (plotted against CR), rounded to two decimals
[8] = Log10 of infection rate relative to EF-C, Figure 3A source data
[9] = infection rate relative to EF-C, log10, data of Figure 2D
[10] = infection rate relative to EF-C, log10, source data of Figure 2C
[11] = HIV-1 infection relative to EF-C, Fig 23 plot, panels A and B, mean of 3 values
[12] = HIV-1 infection relative to EF-C, Fig 23 plot, single data point, replicate 1
[13] = HIV-1 infection relative to EF-C, Fig 23 plot, single data point, replicate 2
[14] = HIV-1 infection relative to EF-C, Fig 23 plot, single data point, replicate 3
[15] = n-fold infection vs virus only, relative to that of EF-C, 1.3 µM peptide
[16] = zeta-potential of peptide, source data of Figure 2C
[17] = zeta-potential of the peptide assemblies, mean, Figure 3A source data
[18] = Log10 of derived count rate of scattered light (turbidity)
[19] = logarithm of count rate in kcps
[20] = turbidity, Log10 of derived count rate of scattered light, Figure 3A source data
[21] = turbidity, log10 of derived count rate of scattered light
[22] = zeta potential of peptide assemblies
[23] = log10 of derived count rate of scattered light (turbidity)

Substance | b -sheet / % [1] [%] | Rel-EFC ([2]; 1.3 µM peptide) | Log10 Infection Rel EFC ([2]; 1.3 µM peptide) | Log Infectivity [2, 6] | Log Infectivity [2, 7] | Log10 Infection Rel EF-C [2, 8] | Log10 Infection Rel EF-C [2, 9] | Log10 Infection Rel EF-C [2, 10] | Abs. Inf. [2] | Log10 Inf. rel. to EF-C [2] | Zeta-Potential / mV [3, 16] [mV] | Zeta-Potential / mV [3, 17] [mV] | Count Rate [4] | Log10 Count Rate [4] | Log10 Count Rate [5, 18] | Count Rate / kcps [5] [kcps] | Log10 Count Rate [5, 20] | Log10 of Rel to EFC (Feb2021) ([2]; all peptides of FigS16) | Zeta-Pot. [3, 22] | Log10 Count Rate [5, 23] | also measured
CKAKAQANMWQ | 39.38 | 0,04 | -1,36 | -1.359 | -1.36 | -1.36 | -1.359 | -1.359 | 600 | -1.359 | 2.155 | 0.74 | 8.967 | 0.9526 | 0.9526 | 9 | 0.9526 |  |  |  | ß-sheet / % [1]: 39%; Inf. rel. EF-C [2, 11]: 0.02574; Inf. rel. EF-C [2, 12]: 0.02321; Inf. rel. EF-C [2, 13]: 0.03098; Inf. rel. EF-C [2, 14]: 0.02305; Abs. Inf. / RLU s-1 [2]: 600 RLU s-1; Inf. rel. EF-C [2, 15]: 0.04; Zeta-Pot. [3]: 0.7373; Zeta pot. / mV [3]: 0.7 mV; Log10 Count Rate [5, 19]: 1 and 0.9528; Log10 Count Rate [5, 21]: 0.9526
QCKAKAQANMWQ | 32.8999 | 0,07 | -1,14 | -1.144 | -1.14 | -1.14 | -1.144 | -1.144 | 2767 | -1.144 | -4.813 | -8.05 | 427.5 | 2.631 | 2.631 | 428 | 2.631 |  |  |  | ß-sheet / % [1]: 33%; Inf. rel. EF-C [2, 11]: 0.1207; Inf. rel. EF-C [2, 12]: 0.1632; Inf. rel. EF-C [2, 13]: 0.09951; Inf. rel. EF-C [2, 14]: 0.09928; Abs. Inf. / RLU s-1 [2]: 2767 RLU s-1; Inf. rel. EF-C [2, 15]: 0.07; Zeta-Pot. [3]: -8.05; Zeta pot. / mV [3]: -8.1 mV; Log10 Count Rate [5, 19]: 2.6; Log10 Count Rate [5, 21]: 2.631
KIKIKIKIWWWW | 37.79 | 0,59 | -0,23 | -0.2301 |  | -0.23 | -0.2301 | -0.2301 |  |  | 14.82 | 15.2 | 12420.6 | 4.094 | 4.094 | 12421 | 4.094 | -0.23 | 15.2 | 4.094 | Log10 of Rel to EFC (Feb2021) ([2]; second listing, peptides with TEM 2cat 0): -0.23; Zeta Count Rate ([5]; peptides with TEM 2cat 0): 12421 kcp
MKIKIQINM | 38.6306 | 0,27 | -0,56 | -0.5635 |  | -0.56 | -0.5635 | -0.5635 |  |  | 9.332 | 9.13 | 981.3 | 2.9918 | 2.9918 | 981 | 2.9918 | -0.56 | 9.13 | 2.9918 | 
KIKIQIC | 52.93 | 0,61 | -0,22 | -0.2164 | -0.22 | -0.22 | -0.2164 | -0.2164 |  |  | 19.97 | 19.93 | 980.7 | 2.992 | 2.992 | 981 | 2.992 | -0.22 | 19.93 | 2.992 | FTIR ß-sheet content [1]: 52.93%; Infection RLU/s, 1.3 µm abs ([2]; peptide 1.3 µm (so in the source), mean of the 3 replicates): 9447 RLU/s; Log10 Count Rate [5, 19]: 2.992; Zeta Count Rate ([5]; mean of the 3 replicates): 980.7 kcps; Zeta Count Rate ([5]; replicate 1): 1115.50 kcps; Zeta Count Rate ([5]; replicate 2): 1268.60 kcps; Zeta Count Rate ([5]; replicate 3): 557.90 kcps
QCKIKIQINM | 37.11 | 0,4 | -0,4 | -0.4024 | -0.4 | -0.4 | -0.4024 | -0.4024 | 15250 | -0.4024 | 11.15 | 11.37 | 9524 | 3.979 | 3.979 | 9524 | 3.979 | -0.4 |  |  | Zeta-Pot. [3]: 11.37; Log10 Count Rate [5, 21]: 3.979
KFKFQFNM | 40.31 | 0,47 | -0,33 | -0.3265 | -0.33 | -0.33 | -0.3265 | -0.3265 | 7067 | -0.3265 | 18.4 | 13.9 | 131.8 | 2.12 | 2.12 | 132 | 2.12 | -0.33 |  |  | Zeta-Pot. [3]: 13.9; Log10 Count Rate [5, 21]: 2.12
KFKFQFFF | 49.11 | 0,4 | -0,39 | -0.3936 | -0.39 | -0.39 | -0.3936 | -0.3936 |  |  | 15.57 | 13.27 | 3039 | 3.483 | 3.483 | 3039 | 3.483 | -0.39 | 13.27 | 3.483 | 
KFKFEFEF | 40.95 | 0,03 | -1,55 | -1.547 |  | -1.55 | -1.547 | -1.547 |  |  | -2.87 | -2.55 | 2186 | 3.34 | 3.34 | 2186 | 3.34 |  | -2.55 | 3.34 | 
